Like-named read-outs stand apart in the source and are kept apart here.
Legend:
Assay in all cases: Test C pre-/postemergence greenhouse herbicide test
Format in all cases: in vivo
soybean (Glycine max) = conditions: Glycine max, Soybean, read-out: Plant response rating; for plant injury at 62 g/ha: 62 g ai/ha; for plant injury at 125 g/ha: 125 g ai/ha; for plant injury at 250 g/ha: 250 g ai/ha
In short: (§1)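 Greenhouse pre- and postemergence screen: compounds in a non-phytotoxic solvent mix plus surfactant were applied to soil/sand-sown seeds or to 1- to 4-leaf plants. Visual rating 13–15 d later, 0 (no effect) to 100 (complete control).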

[1] = test system: ryegrass, Italian (Italian ryegrass, Lolium multiflorum); conditions: Lolium multiflorum, Ryegrass, Italian, read-out: Plant response rating; for pest or weed control at 31 g/ha: 31 g ai/ha; for pest or weed control at 62 g/ha: 62 g ai/ha; for pest or weed control at 125 g/ha: 125 g ai/ha; for pest or weed control at 250 g/ha: 250 g ai/ha
In short: as §1

[2] = test system: nutsedge, yellow (yellow nutsedge, Cyperus esculentus); conditions: Cyperus, Nutsedge, Yellow, read-out: Plant response rating; for pest or weed control at 31 g/ha: 31 g ai/ha; for pest or weed control at 62 g/ha: 62 g ai/ha; for pest or weed control at 125 g/ha: 125 g ai/ha; for pest or weed control at 250 g/ha: 250 g ai/ha
In short: as §1

[3] = test system: velvetleaf (Abutilon theophrasti); conditions: Abutilon theophrasti, Velvetleaf, read-out: Plant response rating; for pest or weed control at 62 g/ha: 62 g ai/ha; for pest or weed control at 125 g/ha: 125 g ai/ha
In short: as §1

[4] = test system: pigweed (Amaranthus retroflexus); conditions: Amaranthus retroflexus, Pigweed, read-out: Plant response rating; for pest or weed control at 31 g/ha: 31 g ai/ha; for pest or weed control at 62 g/ha: 62 g ai/ha; for pest or weed control at 125 g/ha: 125 g ai/ha; for pest or weed control at 250 g/ha: 250 g ai/ha
In short: as §1

[5] = test system: lambsquarters (Chenopodium album)
In short: as §1

[6] = test system: foxtail, giant (giant foxtail, Setaria faberii); conditions: Setaria faberi, Foxtail, Giant, read-out: Plant response rating; for pest or weed control at 31 g/ha: 31 g ai/ha; for pest or weed control at 62 g/ha: 62 g ai/ha; for pest or weed control at 125 g/ha: 125 g ai/ha; for pest or weed control at 250 g/ha: 250 g ai/ha
In short: as §1

[7] = test system: crabgrass, Large (large crabgrass, Digitaria sanguinalis); conditions: Digitaria sanguinalis, Crabgrass, Large, read-out: Plant response rating; for pest or weed control at 31 g/ha: 31 g ai/ha; for pest or weed control at 62 g/ha: 62 g ai/ha; for pest or weed control at 125 g/ha: 125 g ai/ha; for pest or weed control at 250 g/ha: 250 g ai/ha
In short: as §1

corn (Zea mays) = conditions: Zea mays, Corn, read-out: Plant response rating; for plant injury at 31 g/ha: 31 g ai/ha; for plant injury at 62 g/ha: 62 g ai/ha; for plant injury at 125 g/ha: 125 g ai/ha; for plant injury at 250 g/ha: 250 g ai/ha
In short: as §1

[8] = test system: morningglory (Ipomoea coccinea); conditions: Morningglory
In short: as §1

[9] = test system: blackgrass (Alopecurus myosuroides); conditions: Alopecurus myosuroides, Blackgrass, read-out: Plant response rating; for pest or weed control at 62 g/ha: 62 g ai/ha; for pest or weed control at 125 g/ha: 125 g ai/ha; for pest or weed control at 250 g/ha: 250 g ai/ha
In short: as §1

[10] = post-emergence, Postemergence, 31 g ai/ha

`Cc1cc(=O)n(-c2ccc(F)cc2)nc1Oc1ccnc(C(F)(F)F)c1` [Compound 14, 2-(4-fluorophenyl)-5-methyl-6-[[2-(trifluoromethyl)-4-pyridinyl]oxy]-3 (2H)-pyridazinone] showed a plant injury at 31 g/ha (soybean (Glycine max); [10]) of 90%, a plant injury at 62 g/ha (soybean (Glycine max); post-emergence, Postemergence) of 90% and a plant injury at 125 g/ha (soybean (Glycine max); post-emergence, Postemergence) of 95%. It also gave a plant injury at 250 g/ha (soybean (Glycine max); post-emergence, Postemergence) of 95%, a plant injury at 62 g/ha (soybean (Glycine max); pre-emergence, Preemergence) of 40% and a plant injury at 125 g/ha (soybean (Glycine max); pre-emergence, Preemergence) of 55%. The plant injury at 250 g/ha (soybean (Glycine max); pre-emergence, Preemergence) was 75%, the pest or weed control at 31 g/ha ([1]; post-emergence, Postemergence) was 5% and the pest or weed control at 62 g/ha ([1]; post-emergence, Postemergence) was 5%. The pest or weed control at 125 g/ha ([1]; post-emergence, Postemergence) was 10%, the pest or weed control at 250 g/ha ([1]; post-emergence, Postemergence) was 25% and the pest or weed control at 31 g/ha ([1]; pre-emergence, Preemergence) was 0%. The pest or weed control at 62 g/ha ([1]; pre-emergence, Preemergence) was 5%, the pest or weed control at 125 g/ha ([1]; pre-emergence, Preemergence) was 30% and the pest or weed control at 250 g/ha ([1]; pre-emergence, Preemergence) was 50%. For the same compound, the pest or weed control at 31 g/ha ([2]; post-emergence, Postemergence) was 5%, the pest or weed control at 62 g/ha ([2]; post-emergence, Postemergence) was 5% and the pest or weed control at 125 g/ha ([2]; post-emergence, Postemergence) was 5%. The pest or weed control at 250 g/ha ([2]; post-emergence, Postemergence) was 10%, the pest or weed control at 31 g/ha ([2]; pre-emergence, Preemergence) was 0% and the pest or weed control at 62 g/ha ([2]; pre-emergence, Preemergence) was 5%. The pest or weed control at 125 g/ha ([2]; pre-emergence, Preemergence) was 25%, the pest or weed control at 250 g/ha ([2]; pre-emergence, Preemergence) was 25% and the pest or weed control at 31 g/ha [3, 10] was 10%. For the same compound, the pest or weed control at 62 g/ha ([3]; post-emergence, Postemergence) was 30%, the pest or weed control at 125 g/ha ([3]; post-emergence, Postemergence) was 50% and the pest or weed control at 62 g/ha ([3]; pre-emergence, Preemergence) was 10%. It also gave a pest or weed control at 125 g/ha ([3]; pre-emergence, Preemergence) of 20%, a pest or weed control at 250 g/ha ([3]; pre-emergence, Preemergence, 250 g ai/ha) of 100% and a pest or weed control at 31 g/ha ([4]; post-emergence, Postemergence) of 60%. The pest or weed control at 62 g/ha ([4]; post-emergence, Postemergence) was 65%, the pest or weed control at 125 g/ha ([4]; post-emergence, Postemergence) was 80% and the pest or weed control at 250 g/ha ([4]; post-emergence, Postemergence) was 85%. It also gave a pest or weed control at 31 g/ha ([4]; pre-emergence, Preemergence) of 100%, a pest or weed control at 62 g/ha ([4]; pre-emergence, Preemergence) of 100% and a pest or weed control at 125 g/ha ([4]; pre-emergence, Preemergence) of 100%. For the same compound, the pest or weed control at 250 g/ha ([4]; pre-emergence, Preemergence) was 100%, the Plant response rating ([5]; Postemergence, 31 g ai/ha) was 40 and the Plant response rating ([5]; Postemergence, 62 g ai/ha) was 40. For the same compound, the Plant response rating ([5]; Postemergence, 125 g ai/ha) was 45, the Plant response rating ([5]; Postemergence, 250 g ai/ha) was 45 and the Plant response rating ([5]; Preemergence, 31 g ai/ha) was 55. The Plant response rating ([5]; Preemergence, 62 g ai/ha) was 95, the Plant response rating ([5]; Preemergence, 125 g ai/ha) was 95 and the Plant response rating ([5]; Preemergence, 250 g ai/ha) was 98. For the same compound, the pest or weed control at 31 g/ha ([6]; post-emergence, Postemergence) was 5%, the pest or weed control at 62 g/ha ([6]; post-emergence, Postemergence) was 10% and the pest or weed control at 125 g/ha ([6]; post-emergence, Postemergence) was 10%. For the same compound, the pest or weed control at 250 g/ha ([6]; post-emergence, Postemergence) was 15%, the pest or weed control at 31 g/ha ([6]; pre-emergence, Preemergence) was 80% and the pest or weed control at 62 g/ha ([6]; pre-emergence, Preemergence) was 98%. For the same compound, the pest or weed control at 125 g/ha ([6]; pre-emergence, Preemergence) was 100%, the pest or weed control at 250 g/ha ([6]; pre-emergence, Preemergence) was 100% and the pest or weed control at 31 g/ha ([7]; post-emergence, Postemergence) was 10%. For the same compound, the pest or weed control at 62 g/ha ([7]; post-emergence, Postemergence) was 10%, the pest or weed control at 125 g/ha ([7]; post-emergence, Postemergence) was 15% and the pest or weed control at 250 g/ha ([7]; post-emergence, Postemergence) was 30%. For the same compound, the pest or weed control at 31 g/ha ([7]; pre-emergence, Preemergence) was 80%, the pest or weed control at 62 g/ha ([7]; pre-emergence, Preemergence) was 100% and the pest or weed control at 125 g/ha ([7]; pre-emergence, Preemergence) was 100%. It also gave a pest or weed control at 250 g/ha ([7]; pre-emergence, Preemergence) of 100%, a plant injury at 31 g/ha (corn (Zea mays); post-emergence, Postemergence) of 20% and a plant injury at 62 g/ha (corn (Zea mays); post-emergence, Postemergence) of 35%. The plant injury at 125 g/ha (corn (Zea mays); post-emergence, Postemergence) was 40%, the plant injury at 250 g/ha (corn (Zea mays); post-emergence, Postemergence) was 40% and the plant injury at 31 g/ha (corn (Zea mays); pre-emergence, Preemergence) was 0%. It also gave a plant injury at 62 g/ha (corn (Zea mays); pre-emergence, Preemergence) of 35%, a plant injury at 125 g/ha (corn (Zea mays); pre-emergence, Preemergence) of 50% and a plant injury at 250 g/ha (corn (Zea mays); pre-emergence, Preemergence) of 75%. The Plant response rating ([8]; Postemergence, 31 g ai/ha) was 75, the Plant response rating ([8]; Postemergence, 62 g ai/ha) was 75 and the Plant response rating ([8]; Postemergence, 125 g ai/ha) was 80. It also gave a Plant response rating ([8]; Postemergence, 250 g ai/ha) of 98, a Plant response rating ([8]; Preemergence, 31 g ai/ha) of 35 and a Plant response rating ([8]; Preemergence, 62 g ai/ha) of 60. The Plant response rating ([8]; Preemergence, 125 g ai/ha) was 65, the Plant response rating ([8]; Preemergence, 250 g ai/ha) was 75 and the pest or weed control at 31 g/ha [9, 10] was 5%. For the same compound, the pest or weed control at 62 g/ha ([9]; post-emergence, Postemergence) was 5%, the pest or weed control at 125 g/ha ([9]; post-emergence, Postemergence) was 5% and the pest or weed control at 250 g/ha ([9]; post-emergence, Postemergence) was 45%. The pest or weed control at 62 g/ha ([9]; pre-emergence, Preemergence) was 10%, the pest or weed control at 125 g/ha ([9]; pre-emergence, Preemergence) was 15% and the pest or weed control at 250 g/ha ([9]; pre-emergence, Preemergence) was 15%.

From patent US10202361B2, “Pyridazinones as herbicides” (E I DU PONT DE NEMOURS AND COMPANY, priority 2014, dated 2019)
